Experimental data taken from US11220482B2, “Aminopyridinemethanol compounds and their use” (UNIVERSITE AMIENS PICARDIE JULES VERNE, priority 2017, dated 2022).
Like-named read-outs stand apart in the source and are kept apart here.

Columns and labels:
Salmonella strains = assay: Bacterial reverse mutation assay (Ames test), overall conclusion; type: cell-based, S. typhimurium; conditions: all tested doses, absence or presence of the metabolizing mixture
Procedure: Five strains of S. typhimurium were used. […] An additional strain has been chosen to detect cross-linking mutagens, hydrazines and oxidative agents: TA102, which have an AT base pair at the primary reversion site. Salmonella tester strains were gifts from Prof. B. N. Ames (Berkeley, Calif., USA). They were stored at −80° C. and regularly checked for genetic markers.
Few crystals of the frozen working strains were taken with a sterile pipette, and seeded in 10 mL of nutrient broth (NB No 2, Oxoid). Strains were grown overnight at 37° C. with shaking in Nutrient Broth No. 2, with ampicillin (25 μg/mL) for TA1535, TA97a, TA98, and TA 100, or ampicillin (25 μg/mL) plus tetracyclin (2 μg/mL) for TA 102. At the end of the incubation period, 0.1 mL of each overnight culture was mixed to 0.1 mL S9 Mix or 0.1 mL phosphate-buffered saline (PBS, pH 7.4) in 5 mL plastic tubes and various volumes of the tested samples were added to the mixtures. Each experiment included triplicate plates of four tested doses. A solvent (DMSO, 10 μL) control was added to determine the spontaneous frequency of revertants (quadruple plates). Five positive controls were also included to ensure the performance of the tester strains and the S9 Mix. […] After hardening, the plates were incubated at 37° C. for 48 hours.
At the end of the incubation period, revertants were counted with a laser colony counter equipped with a bacterial enumeration program (Spiral System Instrument Inc., Bethesda, Md., USA).
The Dunnett test was performed to determine a significant difference between the mean number of induced revertants and the mean number of spontaneous revertants.

CHO-K1 cells [1] = conditions: Chinese hamster, 24 h
Procedure: All the assays were conducted in duplicate. The CHO-K1 cells, suspended in Mac Coy's 5A medium, were transferred into Labteck wells at a concentration of 100,000 cells/mL, and incubated for 24 hours at 37° C. in CO2 (5%).
The test was performed without metabolic activation: the test substances were added into cell cultures at concentrations previously defined. […] After 24 hours of incubation at 37° C. in CO2 (5%), the culture medium was removed, the cells were rinsed with phosphate buffered saline (PBS), and then returned in culture medium containing […] of cytochalasine B. After a 24-hour incubation period at 37° C., cells were rinsed with phosphate buffered saline (PBS), fixed with methanol and stained with 10% Giemsa for 20 minutes.
(§1) The analysis of results was performed under a microscope at ×1000 magnification. The antiproliferative activity of test substances was estimated by counting the number of binucleated cells relative to the number of mononucleated cells on a total of 500 cells for each dose (250 cells counted per well). The proliferation index (Cytokinesis Blocked Proliferative Index CBPI) was calculated using the following formula:
(§2) The cytostasis index (CI %), i.e. the percentage of cell replication inhibition, was calculated using the following formula: CI %−100−{100×(CBPItest material−1)/(CBPIsolvent control−1)}
(§3) The rates of micronuclei were evaluated for the presence of independent nuclear core entities in 1000 binucleated cells per well, which corresponds to 2000 cells examined by test substance dose. Micronuclei were identified as small nuclei well differentiated from cell nucleus, stained in the same manner and having a diameter less than one third of that of the cell nucleus.
(§4) Micronuclei rates obtained for different doses of test substances were compared to the negative control by a χ2 test. The assay was considered positive if: • A dose-response relationship was obtained between the rate of micronuclei and the doses tested, • At least one of these doses induced a statistically significant increase (P<0.05) in the number of micronucleated cells as compared to the negative control.

Plasmodium falciparum W2 = assay: Plasmodium falciparum susceptibility assay, first round (SYBR Green I); type: cell-based; conditions: W2, first round, 48-h incubation, strain resistant to CQ, sensitive to MQ, read-out: IC50 (nM) Plasmodium falciparum W2 (converted)
CHO-K1 cells [2] = assay: In vitro micronucleus assay, short-term exposure; conditions: for MNC-M (mean of micronucleated cell rates): Chinese hamster, 3 h
Procedure: All the assays were conducted in duplicate. The CHO-K1 cells, suspended in McCoy's 5A medium, were transferred into Labteck wells at a concentration of 100,000 cells/mL, and incubated for 24 hours at 37° C. in CO2 (5%).
When the test was performed without metabolic activation, the test substances were added into cell cultures at concentrations previously defined.
When the assay was performed in the presence of metabolic activation, S9 mix metabolizing mixture was added to cell cultures at a concentration of 10%. Then the test substances were added to the cell cultures at concentrations previously defined.
After 3 hours of incubation at 37° C. in CO2 (5%), the culture medium was removed, the cells were rinsed with phosphate buffered saline (PBS), and then returned to culture in McCoy's 5A medium containing […] of cytochalasin B. After a 21-hour incubation period at 37° C., cells were rinsed with phosphate buffered saline (PBS), fixed with methanol and stained with 10% Giemsa for 20 minutes.
as §1, §2, §3, §4

S. typhimurium TA98 = assay: Bacterial reverse mutation assay (Ames test)
[3] = tested on: Plasmodium falciparum 3D7; assay: Plasmodium falciparum susceptibility assay, first round (SYBR Green I); type: cell-based; conditions: 3D7, first round, 48-h incubation, strain susceptible to CQ, decreased susceptibility to MQ, read-out: IC50 (nM) Plasmodium falciparum 3D7 (converted)
[4] = Table 18 second section, "Test without S9 mix", 0.4 μg/plate
[5] = Table 18 second section, "Test without S9 mix", 0.6 μg/plate
[6] = Table 18 second section, "Test without S9 mix", 0.8 μg/plate
[7] = Table 18 second section, "Test without S9 mix", 1 μg/plate

Structure (SMILES): CCCCCNC[C@@H](O)c1cc(-c2ccc(C(F)(F)F)cc2)nc(C(F)(F)F)c1 [Compound 1a]
- mutagenic activity in Salmonella strains (revertant rates) (Salmonella strains): No significant increase in revertant rates
- Number of revertants by plate (Means ± SD), TA102 (S. typhimurium TA102; [4]): 387 ± 8^NS
- Number of revertants by plate (Means ± SD), TA102 (S. typhimurium TA102; [5]): 395 ± 9^NS
- Number of revertants by plate (Means ± SD), TA102 (S. typhimurium TA102; [6]): 379 ± 8^NS
- Number of revertants by plate (Means ± SD), TA102 (S. typhimurium TA102; [7]): 378 ± 5^NS
- Number of revertants by plate (Means ± SD), TA102 (S. typhimurium TA102; without S9 mix, 0.4 μg/plate): 319 ± 12^NS
- Number of revertants by plate (Means ± SD), TA102 (S. typhimurium TA102; without S9 mix, 0.6 μg/plate): 308 ± 10^NS
- Number of revertants by plate (Means ± SD), TA102 (S. typhimurium TA102; without S9 mix, 0.8 μg/plate): 325 ± 13^NS
- Number of revertants by plate (Means ± SD), TA102 (S. typhimurium TA102; without S9 mix, 1 μg/plate): 318 ± 10^NS
- BI (binucleated cells) (CHO-K1 cells [1]; 5 μM): 417
- CBPI (Cytokinesis-Blocked Proliferative Index) (CHO-K1 cells [1]; 5 μM): 1.83
- CI % (cytostasis index) (CHO-K1 cells [1]; 5 μM): 8%
- MNC1 (micronucleated cell rate) (CHO-K1 cells [1]; 5 μM): 10 ‰
- MNC2 (micronucleated cell rate) (CHO-K1 cells [1]; 5 μM): 9 ‰
- MNC-M (mean of micronucleated cell rates) (CHO-K1 cells [1]; 5 μM): 9.5 ± 0.7 ‰
- MONO (mononucleated cells) (CHO-K1 cells [1]; 5 μM): 83
- BI (binucleated cells) (CHO-K1 cells [1]; 10 μM): 323
- CBPI (Cytokinesis-Blocked Proliferative Index) (CHO-K1 cells [1]; 10 μM): 1.64
- CI % (cytostasis index) (CHO-K1 cells [1]; 10 μM): 29%
- MNC1 (micronucleated cell rate) (CHO-K1 cells [1]; 10 μM): 9 ‰
- MNC2 (micronucleated cell rate) (CHO-K1 cells [1]; 10 μM): 11 ‰
- MNC-M (mean of micronucleated cell rates) (CHO-K1 cells [1]; 10 μM): 10 ± 1.4 ‰
- MONO (mononucleated cells) (CHO-K1 cells [1]; 10 μM): 177
- BI (binucleated cells) (CHO-K1 cells [1]; 50 μM): 226
- CBPI (Cytokinesis-Blocked Proliferative Index) (CHO-K1 cells [1]; 50 μM): 1.46
- CI % (cytostasis index) (CHO-K1 cells [1]; 50 μM): 52%
- MNC1 (micronucleated cell rate) (CHO-K1 cells [1]; 50 μM): 10 ‰
- MNC2 (micronucleated cell rate) (CHO-K1 cells [1]; 50 μM): 12 ‰
- MNC-M (mean of micronucleated cell rates) (CHO-K1 cells [1]; 50 μM): 11 ± 1.4 ‰
- MONO (mononucleated cells) (CHO-K1 cells [1]; 50 μM): 274
- IC50 (Plasmodium falciparum W2): 8.6 ± 1 nM
- in vitro micronucleus assay result (clastogenic and/or aneugenic activities) (CHO-K1 cells [2]): negative results
- MNC-M (mean of micronucleated cell rates) (CHO-K1 cells [2]; 10 μM): 9.5 ± 0.7 ‰
- MNC-M (mean of micronucleated cell rates) (CHO-K1 cells [2]; 50 μM): 10 ± 1.4 ‰
- MNC-M (mean of micronucleated cell rates) (CHO-K1 cells [2]; 100 μM): 11 ± 1.4 ‰
- Number of revertants by plate (Means ± SD), TA97a (S. typhimurium TA97a; [4]): 128 ± 8^NS
- Number of revertants by plate (Means ± SD), TA97a (S. typhimurium TA97a; [5]): 133 ± 4^NS
- Number of revertants by plate (Means ± SD), TA97a (S. typhimurium TA97a; [6]): 147 ± 10^NS
- Number of revertants by plate (Means ± SD), TA97a (S. typhimurium TA97a; [7]): 151 ± 6^NS
- Number of revertants by plate (Means ± SD), TA97a (S. typhimurium TA97a; without S9 mix, 0.4 μg/plate): 161 ± 8^NS
- Number of revertants by plate (Means ± SD), TA97a (S. typhimurium TA97a; without S9 mix, 0.6 μg/plate): 155 ± 6^NS
- Number of revertants by plate (Means ± SD), TA97a (S. typhimurium TA97a; without S9 mix, 0.8 μg/plate): 159 ± 8^NS
- Number of revertants by plate (Means ± SD), TA97a (S. typhimurium TA97a; without S9 mix, 1 μg/plate): 154 ± 9^NS
- Number of revertants by plate (Means ± SD), TA98 (S. typhimurium TA98; [4]): 28 ± 3^NS
- Number of revertants by plate (Means ± SD), TA98 (S. typhimurium TA98; [5]): 25 ± 5^NS
- Number of revertants by plate (Means ± SD), TA98 (S. typhimurium TA98; [6]): 31 ± 6^NS
- Number of revertants by plate (Means ± SD), TA98 (S. typhimurium TA98; [7]): 25 ± 3^NS
- Number of revertants by plate (Means ± SD), TA98 (S. typhimurium TA98; without S9 mix, 0.4 μg/plate): 30 ± 4^NS
- Number of revertants by plate (Means ± SD), TA98 (S. typhimurium TA98; without S9 mix, 0.6 μg/plate): 28 ± 8^NS
- Number of revertants by plate (Means ± SD), TA98 (S. typhimurium TA98; without S9 mix, 0.8 μg/plate): 31 ± 6^NS
- Number of revertants by plate (Means ± SD), TA98 (S. typhimurium TA98; without S9 mix, 1 μg/plate): 24 ± 5^NS
- Number of revertants by plate (Means ± SD), TA100 (S. typhimurium TA100; [4]): 185 ± 8
- Number of revertants by plate (Means ± SD), TA100 (S. typhimurium TA100; [5]): 183 ± 7^NS
- Number of revertants by plate (Means ± SD), TA100 (S. typhimurium TA100; [6]): 172 ± 6^NS
- Number of revertants by plate (Means ± SD), TA100 (S. typhimurium TA100; [7]): 177 ± 4^NS
- Number of revertants by plate (Means ± SD), TA100 (S. typhimurium TA100; without S9 mix, 0.4 μg/plate): 189 ± 8
- Number of revertants by plate (Means ± SD), TA100 (S. typhimurium TA100; without S9 mix, 0.6 μg/plate): 192 ± 9^NS
- Number of revertants by plate (Means ± SD), TA100 (S. typhimurium TA100; without S9 mix, 0.8 μg/plate): 215 ± 13^NS
- Number of revertants by plate (Means ± SD), TA100 (S. typhimurium TA100; without S9 mix, 1 μg/plate): 196 ± 14^NS
- IC50 [3]: 52.4 ± 1.7 nM
- Number of revertants by plate (Means ± SD), TA1535 (S. typhimurium TA1535; [4]): 29 ± 8^NS
- Number of revertants by plate (Means ± SD), TA1535 (S. typhimurium TA1535; [5]): 29 ± 9^NS
- Number of revertants by plate (Means ± SD), TA1535 (S. typhimurium TA1535; [6]): 32 ± 8^NS
- Number of revertants by plate (Means ± SD), TA1535 (S. typhimurium TA1535; [7]): 27 ± 4^NS
- Number of revertants by plate (Means ± SD), TA1535 (S. typhimurium TA1535; without S9 mix, 0.4 μg/plate): 25 ± 6^NS
- Number of revertants by plate (Means ± SD), TA1535 (S. typhimurium TA1535; without S9 mix, 0.6 μg/plate): 30 ± 5^NS
- Number of revertants by plate (Means ± SD), TA1535 (S. typhimurium TA1535; without S9 mix, 0.8 μg/plate): 31 ± 4^NS
- Number of revertants by plate (Means ± SD), TA1535 (S. typhimurium TA1535; without S9 mix, 1 μg/plate): 26 ± 6^NS
